pIC50: −log10 of the molar value. In brackets after ≈: the same amount, converted by molar mass. Activity calls are given as the source filed them. The calls are words filed in the database; no cut-off is given here.

One series relates to SK-N-MC. Briefly: Cytotoxicity against human SK-N-MC cells by MTT assay. Type of series: functional, cell-based.
The subject of the next series is MCF7. Briefly: Cytotoxicity against human MCF7 cells by MTT assay. Type of series: functional, cell-based. In general terms: Tetrazolium dyes change colour on reduction, which living cells bring about.
A further series relates to HepG2. Briefly: Cytotoxicity against human HepG2 cells by MTT assay. Type of series: functional, cell-based.
For series [1], the system named is Escherichia coli. As to the kind of experiment: Bactericidal activity against Escherichia coli MTCC 1652 assessed as reduction of number of bacterial cells at 4 times MIC after 2 to 3 hrs. Type of series: functional, organism-based.
For series [2], the system named is Bacillus subtilis. As to the kind of experiment: Antibacterial activity against Bacillus subtilis MTCC 121 after 18 to 24 hrs by broth microdilution method. Type of series: functional. A general note: In broth dilution the organism is exposed to a series of concentrations in liquid medium.
The subject of series [3] is Bacillus subtilis. Briefly: Antibacterial activity against Bacillus subtilis MTCC 121 after 18 to 24 hrs by agar well diffusion method. Type of series: functional.
The test system of series [4] is Pseudomonas putida. Briefly: Antibacterial activity against Pseudomonas putida MTCC 102 after 18 to 24 hrs by broth microdilution method. Type of series: functional.
The test system of series [5] is Escherichia coli. As to the kind of experiment: Antibacterial activity against Escherichia coli MTCC 1652 after 18 to 24 hrs by agar well diffusion method. Type of series: functional. (A growth-free zone around the sample is the usual read-out of agar diffusion tests.)
Series [6] deals with Escherichia coli. Briefly: Antibacterial activity against Escherichia coli MTCC 1652 after 18 to 24 hrs by broth microdilution method. Type of series: functional.
Series [7] relates to Staphylococcus aureus. Briefly: Antibacterial activity against Staphylococcus aureus MTCC 96 after 18 to 24 hrs by agar well diffusion method. Type of series: functional.
For series [8], the system named is Escherichia coli. Briefly: Bactericidal activity against Escherichia coli MTCC 1652 assessed as reduction of number of bacterial cells at 4 times MIC after 1 to 6 hrs. Type of series: functional, organism-based.
The subject of series [9] is Pseudomonas putida. Briefly: Antibacterial activity against Pseudomonas putida MTCC 102 after 18 to 24 hrs by agar well diffusion method. Type of series: functional.
The subject of series [10] is Staphylococcus aureus. As to the kind of experiment: Antibacterial activity against Staphylococcus aureus MTCC 96 after 18 to 24 hrs by broth microdilution method. Type of series: functional.
The subject of series [11] is Pseudomonas putida. As to the kind of experiment: Bactericidal activity against Pseudomonas putida MTCC 102 assessed as reduction of number of bacterial cells at 4 times MIC after 2 to 3 hrs. Type of series: functional, organism-based.
Series [12] is described as follows: Solubility of the compound in 0.05 to 0.1% DMSO. Type of series: physicochemical.
Series [13] deals with Pseudomonas putida. Briefly: Bactericidal activity against Pseudomonas putida MTCC 102 assessed as reduction of number of bacterial cells at 4 times MIC after 1 to 6 hrs. Type of series: functional, organism-based.
In series [14] the test system is PC-3. As to the kind of experiment: Cytotoxicity against human PC3 cells after 48 hrs by MTT assay in presence of 10% FBS. As to conditions: PC-3, 48 h. Type of series: functional, cell-based.
Series [15] can be described thus: Cytotoxicity against human castration-resistant C4-2 cells after 48 hrs by MTT assay in presence of 10% FBS. As to conditions: LNCaP C4-2, 48 h. Type of series: functional, cell-based.
For series [16], the system named is HeLa. Briefly: Induction of apoptosis in human HeLa cells assessed as formation of apoptotic nuclei formation at 10 uM after 24 hrs using propidium iodide staining by fluorescence microscopy analysis. Type of series: functional, cell-based.
Series [17] can be described thus: Cytotoxicity against human castration-resistant C4-2 cells after 48 hrs by MTT assay in absence of 10% FBS. Type of series: functional, cell-based. To be noted: LNCaP C4-2, 48 h.
Series [18] relates to LNCaP. Briefly: Cytotoxicity against human LNCAP cells after 48 hrs by MTT assay in absence of 10% FBS. Type of series: functional, cell-based.
Series [19] relates to MDA-MB-231. As to the kind of experiment: Cytotoxicity against human MDA-MB-231 cells after 48 hrs by MTT assay in absence of 10% FBS. Type of series: functional, cell-based. To be noted: MDA-MB-231, 48 h.
The subject of series [20] is PC-3. As to the kind of experiment: Cytotoxicity against human PC3 cells after 48 hrs by MTT assay in absence of 10% FBS. As to conditions: PC-3, 48 h. Type of series: functional, cell-based.
Series [21] concerns HEK-293T. As to the kind of experiment: Cytotoxicity against human HEK293T cells after 48 hrs by MTT assay in presence of 10% FBS. Type of series: cell-based.
In series [22] the test system is LNCaP. As to the kind of experiment: Cytotoxicity against human LNCAP cells after 48 hrs by MTT assay in presence of 10% FBS. Type of series: functional, cell-based.
The test system of series [23] is HEK-293T. Briefly: Cytotoxicity against human HEK293T cells after 48 hrs by MTT assay in absence of 10% FBS. Type of series: cell-based.
Series [24] has as its system MDA-MB-231. As to the kind of experiment: Cytotoxicity against human MDA-MB-231 cells after 48 hrs by MTT assay in presence of 10% FBS. As to conditions: MDA-MB-231, 48 h. Type of series: functional, cell-based.
The test system of series [25] is HeLa. Briefly: Cytotoxicity against human HeLa cells after 48 hrs by MTT assay in absence of 10% FBS. Type of series: functional, cell-based.
The subject of series [26] is HeLa. As to the kind of experiment: Cytotoxicity against human HeLa cells after 48 hrs by MTT assay in presence of 10% FBS. Type of series: functional, cell-based.
In series [27] the test system is Staphylococcus aureus. Briefly: Antibacterial activity against methicillin-resistant Staphylococcus aureus. Type of series: functional.

As usually defined, the pIC50 is the negative decadic logarithm of the IC50, by convention in mol/L. On to `Cc1ccc(-c2nc(C(=O)Nc3ccccc3)cs2)cc1`, for which the pIC50 in the series on SK-N-MC, with MCF7 and with HepG2 was 5.00 throughout.

A word on the MIC: it is the least concentration at which growth counts as inhibited. With `COc1ccc(NC(=O)c2csc(-c3c[nH]c4ccc(Br)cc34)n2)cc1`, the outcome in the series with Escherichia coli [1], with Escherichia coli [8], in the series on Pseudomonas putida [11] and with Pseudomonas putida [13] was Active. The MIC was 50 µg/mL (≈ 117 µM) with Bacillus subtilis [2], 12.5 µg/mL (≈ 29.2 µM) with Pseudomonas putida [4], 12.5 µg/mL (≈ 29.2 µM) in the series on Escherichia coli [6] and 50 µg/mL (≈ 117 µM) against Staphylococcus aureus [10]. The “inhibition zone (IZ)” value in the series with Bacillus subtilis [3] worked out at 15 mm; in the series with Escherichia coli [5], 15 mm; in the series with Staphylococcus aureus [7], 14 mm; with Pseudomonas putida [9], 16 mm. For the same compound, the solubility result in series [12] is “Insoluble”.

On to `COc1ccc(NC(=O)c2csc(-c3c[nH]c4ccccc34)n2)cc1`, for which the MIC against Bacillus subtilis [2] was determined as 100 µg/mL (≈ 286 µM); in the series on Pseudomonas putida [4], 100 µg/mL (≈ 286 µM); against Escherichia coli [6], 50 µg/mL (≈ 143 µM); against Staphylococcus aureus [10], 100 µg/mL (≈ 286 µM). Further, the “inhibition zone (IZ)” value was found to be 12 mm with Bacillus subtilis [3], 14 mm in the series on Escherichia coli [5], 11 mm in the series on Staphylococcus aureus [7] and 12 mm in the series with Pseudomonas putida [9]. Besides, in [12], the solubility result is reported as “Insoluble”.

Take `COc1cccc2c1C(=O)c1c(O)c3c(c(O)c1C2=O)C[C@@](O)(C(=O)CO)C[C@@H]3O[C@H]1C[C@H](N)[C@H](O)[C@H](C)O1` [DOXORUBICIN]: the negative logarithm of the IC50 (pIC50) in the series on PC-3 [14] is 5.01; in series [15], 6.24; in series [17], 5.99; with LNCaP [18], 5.19; with MDA-MB-231 [19], 5.22; with PC-3 [20], 5.12. Also, the pIC50 with HEK-293T [21] was 6.12; with LNCaP [22] it was 5.13; in the series on HEK-293T [23], 6.08. Also, the outcome with HeLa [16] was Active.

`COc1ccc2[nH]cc(-c3nc(C(=O)Nc4cc(OC)c(OC)c(OC)c4)cs3)c2c1`: the negative-log IC50 (pIC50) with PC-3 [14] is under 4.00; in the series with MDA-MB-231 [24], under 4.00; in [15], under 4.00; in [17], under 4.00; in the series with LNCaP [18] it was under 4.00; in the series on HeLa [25], 4.53. The pIC50 with HeLa [26] is 5.00; with MDA-MB-231 [19], under 4.00; in the series with PC-3 [20] it was 4.03; in the series on HEK-293T [21] it was 5.06; in the series on LNCaP [22], 4.07; in the series with HEK-293T [23], 5.07. For the same compound, the outcome with Escherichia coli [1], with HeLa [16], in the series with Escherichia coli [8], with Pseudomonas putida [11] and with Pseudomonas putida [13] was Active. Further, the MIC came to 50 µg/mL (≈ 114 µM) in the series on Bacillus subtilis [2], 12.5 µg/mL (≈ 28.4 µM) with Pseudomonas putida [4], 12.5 µg/mL (≈ 28.4 µM) with Escherichia coli [6] and 100 µg/mL (≈ 228 µM) with Staphylococcus aureus [10]. For the same compound, the “inhibition zone (IZ)” value is 14 mm in the series on Bacillus subtilis [3], 18 mm with Escherichia coli [5], 13 mm in the series on Staphylococcus aureus [7] and 18 mm in the series on Pseudomonas putida [9].

For the compound `COc1cc(NC(=O)c2csc(-c3c[nH]c4ccccc34)n2)cc(OC)c1OC`, the minimum inhibitory concentration (MIC) against Bacillus subtilis [2] is 50 µg/mL (≈ 122 µM); against Pseudomonas putida [4], 100 µg/mL (≈ 244 µM); in the series with Escherichia coli [6] it was 50 µg/mL (≈ 122 µM); against Staphylococcus aureus [10], 100 µg/mL (≈ 244 µM). The “inhibition zone (IZ)” value in the series with Bacillus subtilis [3] was 14 mm; with Escherichia coli [5], 14 mm; in the series on Staphylococcus aureus [7], 12 mm; in the series with Pseudomonas putida [9] it was 13 mm. For the same compound, the solubility entry in series [12] is “Insoluble”.

On to `Clc1ccc2ccc(-c3c[nH]c4ccc(Br)cc34)nc2c1`, for which the minimal inhibitory concentration (MIC) against Staphylococcus aureus [27] is under 1 µg/mL.

Turning to `COc1ccc(NC(=O)c2csc(-c3c[nH]c4ccccc34)n2)cc1OC`, the MIC was determined as 50 µg/mL (≈ 132 µM) in the series with Bacillus subtilis [2], 25 µg/mL (≈ 65.9 µM) against Pseudomonas putida [4], 25 µg/mL (≈ 65.9 µM) against Escherichia coli [6] and 50 µg/mL (≈ 132 µM) against Staphylococcus aureus [10]. For the same compound, the “inhibition zone (IZ)” value turned out to be 14 mm with Bacillus subtilis [3], 16 mm in the series with Escherichia coli [5], 14 mm in the series on Staphylococcus aureus [7] and 16 mm in the series with Pseudomonas putida [9]. Moreover, the solubility result in series [12] is reported as “Insoluble”.

(Values after ChEMBL document CHEMBL3616377, “2-(3'-Indolyl)-N-arylthiazole-4-carboxamides: Synthesis and evaluation of antibacterial and anticancer activities” (Bioorg Med Chem Lett, 2015).)
